Reference: patent US20040122048A1, “Stabilized pharmaceutical composition containing basic excipients” (Wyeth Holdings Corporation, priority 2002, published 2004)

Legend:
[1] = pH of excipient solutions and of crushed EKB-569 tablet slurries; assay type: physicochemical; details: for pH at 0.1% excipient, Excipient Solution: 0.1% solution/suspension of basic excipient; for pH at 0.5% excipient, Excipient Solution: 0.5% solution/suspension of basic excipient; for pH at 1% excipient, Excipient Solution: 1% solution/suspension of basic excipient; for pH at 5% excipient, Excipient Solution: 5% solution/suspension of basic excipient
Excerpt: The data in Table 3 supported testing improved stability of a pharmaceutical composition by lowering the pH of the pharmaceutical composition. […]

[2] = Stability of EKB-569 solution (degradation rate constant in buffers); assay type: physicochemical; details: for EKB-569 degradation rate constant: 0.2 mg/mL in 0.02 M buffer with 50% Acetonitrile
[3] = Solid state stability for EKB-569 drug substance at 56° C./75% RH; assay type: physicochemical; details: for % EKB-569 remaining / Total impurities: drug substance, 56° C./75% RH
Protocol: A study was conducted at 56° C./75% RH for 2 weeks. The samples were filled into 2-ml flame sealed Kimble score-break ampules.

[4] = Protocol: Compositions of tablets containing 0.5% and 0.1% of these excipients remain the same. Quantity of microcrystalline cellulose was adjusted to allow for the changes in the amounts of basic excipients. Tablets were manufactured using granulation.
Tablets were stored at 40° C./75% RH for 1 month.

| Structure (SMILES) | pH at 0.1% excipient, Excipient Solution [1] | pH at 0.5% excipient, Excipient Solution [1] | pH at 1% excipient, Excipient Solution [1] | pH at 5% excipient, Excipient Solution [1] | also measured |
| --- | --- | --- | --- | --- | --- |
| N=C(N)NCCC[C@H](N)C(=O)O [Arginine] | 10.18 | 10.57 | 10.91 | 11.23 |  |
| O=C([O-])[O-].[Ca+2] [Calcium carbonate] | 8.95 | 8.93 | 9.02 | 9.12 |  |
| O=C([O-])CN(CCN(CC(=O)[O-])CC(=O)[O-])CC(=O)[O-].[Na+].[Na+].[Na+].[Na+] [EDTA, tetra sodium] | 10.55 | 10.84 | 10.94 | 10.75 |  |
| CCOc1cc2ncc(C#N)c(Nc3ccc(F)c(Cl)c3)c2cc1NC(=O)C=CCN(C)C [EKB-569, 4-dimethylamino-but-2-enoic acid [4-(3-chloro-4-fluoro-phenylamino)-3-cyano-7-ethoxy-quinolin-6-yl]-amide] |  |  |  |  | EKB-569 degradation rate constant ([2]; pH 1.2 (HCl), 80° C.): 0.0013 h⁻¹; EKB-569 degradation rate constant ([2]; pH 3.0 (Phoshphate), 80° C.): 0.0003 h⁻¹; EKB-569 degradation rate constant ([2]; pH 5.0 (Acetate), 56° C.): 0.0008 h⁻¹; EKB-569 degradation rate constant ([2]; pH 5.0 (Acetate), 80° C.): 0.0113 h⁻¹; EKB-569 degradation rate constant ([2]; pH 7.4 (Phosphate), 56° C.): 0.003 h⁻¹; EKB-569 degradation rate constant ([2]; pH 7.4 (Phosphate), 80° C.): 0.0235 h⁻¹; EKB-569 degradation rate constant ([2]; pH 9 (Glycine), 56° C.): 0.0031 h⁻¹; EKB-569 degradation rate constant ([2]; pH 9 (Glycine), 80° C.): 0.0229 h⁻¹; stability in solution as a function of pH ([2]; pH range 1.2-9, 56° C. and 80° C.): more stable in acidic solution; stability in the solid state ([3]; 56° C./75% RH for 2 weeks): chemical instability in the solid state; % EKB-569 remaining ([3]; 3 Days): 98.1%; Total impurities ([3]; 3 Days): 1.1%; % EKB-569 remaining ([3]; 7 Days): 97.7%; Total impurities ([3]; 7 Days): 1.68%; % EKB-569 remaining ([3]; 14 Days): 97.1%; Total impurities ([3]; 14 Days): 2.62%; % EKB-569 remaining ([3]; Initial): 99.1%; Total impurities ([3]; Initial): 0.78% |
| O=C([O-])O.[Na+] [Sodium bicarbonate] | 8.69 | 8.56 | 8.34 | 8.18 |  |
| O=C([O-])[O-].[Na+].[Na+] [Sodium carbonate] | 10.99 | 11.21 | 11.31 | 11.5 |  |
| NC(CO)(CO)CO [Tromethamine] | 9.98 | 9.99 | 10.51 | 10.87 |  |
| OC[C@H]1O[C@@H](O[C@H]2[C@H](O)[C@@H](O)C(O)O[C@@H]2CO)[C@H](O)[C@@H](O)[C@H]1O (stereo partly shown) [lactose] |  |  |  |  | effect on stability of EKB-569 pharmaceutical composition [4]: no effect on stability |
